The values below come from PubChem BioAssay AID624258 (Broad Institute, 2012).

The structures appear in SMILES notation. The source made the active and inactive calls. No rule for the calls is given here.

For the experiment, the system named is S. cerevisiae SKN7-toxicity growth rescue, plate reader. Description: SKN7 mediated toxicity in Saccharomyces cerevisiae, growth rescue counterscreen, dose confirmation (AID 624258).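 Also: growth read after three days of incubation at 30 °C.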 On the technique in general: The purpose of a counterscreen is to sort out artefacts and off-target activity.
`O=[N+]([O-])c1cc(Cl)cc(/C=N/NC(=S)Nc2ccc(S(=O)(=O)N3CCOCC3)cc2)c1O`: the AC40 is 2220 nM.

Regarding `O=C(O)c1ccc(C(=O)c2cc([N+](=O)[O-])cc([N+](=O)[O-])c2)cc1`, the AC40 is 15700 nM.

On to `COc1ccc2c(c1)[C@H]1[C@H](CO2)[C@H](c2ccccc2)[C@]2(C)C(=O)Nc3ccc(Cl)cc3C(=O)N12`, for which the AC40 is 17200 nM.

`Oc1ccccc1N=Cc1ccc[nH]1`: the AC40 is > 750 nM (inactive).

Regarding `COc1cc(C(=O)ON=C2C3CC4CC(C3)CC2C4)cc(OC)c1OC`, the AC40 was 1790 nM.

`Cc1ccc(NC2=CC(=O)C(=O)c3ccccc32)c(C)c1`: the AC40 was 18700 nM.

For the compound `Cc1nn(-c2nnc(NC3CCCCC3)nn2)c(C)c1Br`, the AC40 is 6480 nM.

For the compound `CCOC(=O)c1cccc2c1-c1ccccc1/C2=N/O`, the AC40 is 1910 nM.

On to `COc1ccccc1-c1cc(C(F)(F)F)nc(S(C)(=O)=O)n1`, for which the AC40 is 1710 nM.

Turning to `CC(C)CN(C(=O)c1cccc(S(=O)(=O)N2CCN(Cc3ccccc3)CC2)c1)C1CCS(=O)(=O)C1` (configuration not stated), the AC40 was 8010 nM.

Consider `COc1cccc(-n2nc(C#N)c(Cl)cc2=O)c1`, for which the AC40 was 2080 nM.

With `CNC(=S)Nc1ccc(C23CC4CC(CC(C4)C2)C3)cc1`, the AC40 is 2470 nM.

Turning to `O=C1Nc2c(Cl)cc(Cl)cc2C1=O`, the AC40 is > 19500 nM (inactive).

Regarding `C/C(CC(=O)Nc1ccccn1)=N\NC(=O)c1ccccc1O`, the AC40 was 5110 nM.

On to `CC1=CC(=O)C=C(C)C1=NOS(=O)(=O)c1ccccc1`, for which the AC40 is 454 nM.

`CCCOc1ccc(C(=O)NNC(=S)NC(=O)CC)cc1`: the AC40 is 1480 nM.

For the compound `O=C(N/N=C/c1c(O)n(Cc2ccccc2)c(=O)c2ccccc12)c1cccnc1`, the AC40 is 1010 nM.

Turning to `CCS(=O)(=O)c1ccc(N=Nc2ccc(O)c3ncccc23)c(OC)c1`, the AC40 is 3560 nM.

Regarding `Cc1cccc(C)c1NC(=O)c1nc(S(=O)(=O)Cc2ccccc2)ncc1Cl`, the AC40 was 7570 nM.

In the case of `O=C1CC(N2CCCCCC2)C(=O)N1c1ccc2c(c1)OCO2` (configuration not stated), the AC40 is 6750 nM.

With `Cc1ccc(CN=Cc2[nH]c3ccc(Br)c(Cl)c3c2O)cc1`, the AC40 was 9030 nM.

As for `CCOC(=O)c1c(C)oc2c1C(=O)c1ccccc1C2=O`, the AC40 was 2280 nM.

With `COC(=O)c1ccc(N2C(=O)CC(N(C)CCc3ccc(OC)c(OC)c3)C2=O)cc1` (configuration not stated), the AC40 was 8600 nM.

`O=C1CC(O)(C(F)(F)F)Oc2c1ccc1ccccc21` (configuration not stated): the AC40 is 814 nM.

`Cc1nn2c(-c3ccncc3)nnc2c2ccccc12`: the AC40 was > 6800 nM (inactive).

With `COc1ccc(C(=O)c2c(C(F)(F)F)oc3c2C(=O)c2ccccc2C3=O)cc1OC`, the AC40 is 14300 nM.

Take `CC(C)(c1cc(Br)c(O)c(Br)c1)c1cc(Br)c(O)c(Br)c1`: the AC40 was 1260 nM.

Regarding `COc1cc(/C=C2\SC(=S)N(NS(=O)(=O)c3ccc(C)cc3)C2=O)ccc1O`, the AC40 was 1640 nM.

As for `CCCC(=O)NC(c1ccccc1OC)c1ccc2cccnc2c1O` (configuration not stated), the AC40 was 1200 nM.

For `CC1(C(=O)OCC(=O)Nc2ccc3ccccc3c2)CC1(Cl)Cl` (configuration not stated), the AC40 was 17600 nM.

For the compound `COc1ccccc1C1CCN(c2cc(O)ccc2[N+](=O)[O-])CC1`, the AC40 is 2830 nM.

With `COc1cccc(Oc2cncnc2-c2ccc(OC)cc2O)c1`, the AC40 was 18900 nM.

For `N=c1c2c(-c3ccccc3)c(-c3ccccc3)n(Cc3ccco3)c2ncn1CCCn1ccnc1`, the AC40 was 2920 nM.

With `Cc1nnc(N=c2ssnc2Cl)o1`, the AC40 was 832 nM.

In the case of `COc1cc(OC)cc(N2C(=O)CC(N3CCC(C(=O)N4CCCCC4)CC3)C2=O)c1` (configuration not stated), the AC40 was 13700 nM.

As for `O=S(=O)(CCSc1nc2ccccc2o1)c1nc2ccccc2s1`, the AC40 is 3620 nM.

`O=C(Nc1cccc(-c2nc3ccccc3s2)c1)c1cccs1`: the AC40 was 1340 nM.

For the compound `O=[N+]([O-])c1cc(Cl)ccc1Sc1ccccn1`, the AC40 was 17300 nM.

Turning to `N/C(Cc1ccc(Cl)cc1Cl)=N\OC(=O)c1ccc(Br)o1`, the AC40 was 746 nM.

Regarding `Cc1cccc(N2C(=O)C(Oc3ccc(Cl)cc3Cl)C2C=O)c1C` (configuration not stated), the AC40 is 1980 nM.

For the compound `C=CCN(CC=C)C(=S)NC(=O)c1ccc(OC)c(Br)c1`, the AC40 is 652 nM.

Turning to `O=c1c2cc(Cl)ccc2oc2nc3n(c(=O)c12)CCCS3`, the AC40 was 19100 nM.

On to `S=C1SCN(Cc2cccnc2)CN1Cc1cccnc1`, for which the AC40 is 1010 nM.

Turning to `COc1cccc(CNC(=O)CSc2ccc(-c3ccccn3)nn2)c1`, the AC40 is 16400 nM.

As for `COc1cc2c(c(OC)c1OC)-c1ccc(O)c(=O)cc1[C@@H](N)CC2`, the AC40 was 936 nM.

Regarding `CC(C)(C)C(=O)C(Oc1ccc(Cl)cc1)n1cncn1` (configuration not stated), the AC40 is 2020 nM.

`COC(=O)/C=C\C(=O)Nc1cccc([N+](=O)[O-])c1`: the AC40 was 2170 nM.

In the case of `O=C1Cc2ccccc2C(=O)N1CCc1ccccc1`, the AC40 was 10500 nM.

With `CCCNC(=O)c1ccc2c(=O)c(O)c(-c3ccc(F)cc3)[nH]c2c1`, the AC40 was 2310 nM.

For the compound `Cc1onc(-c2ccccc2)c1C(=O)OCc1nnc(-c2ccc([N+](=O)[O-])cc2)o1`, the AC40 is 2270 nM.

For the compound `Cc1ccc(C(=O)Sc2cccccc2=O)cc1`, the AC40 is 322 nM.

Consider `CO/N=C/c1ccc(Oc2ccc([N+](=O)[O-])cc2[N+](=O)[O-])c(OC)c1`, for which the AC40 is 18500 nM.

For the compound `CCCCC(=O)NC(c1ccc(N(C)C)cc1)c1ccc2cccnc2c1O` (configuration not stated), the AC40 was 754 nM.

Regarding `O=c1[nH][nH]cc1C=Nc1ccccc1O`, the AC40 is 2180 nM.

In the case of `O=C1C=C(Nc2ccccc2O)c2ccccc2C1=O`, the AC40 is 12600 nM.

For `Cc1nn(-c2nnc(NCc3ccccc3)nn2)c(C)c1Br`, the AC40 is 6940 nM.

With `COc1ccc(-c2cc(C(=O)N3CCN(c4ccccc4F)CC3)c3ccccc3n2)c(OC)c1`, the AC40 is > 19500 nM (inactive).

Turning to `O=S(=O)(CCSc1ccccn1)c1nc2ccccc2s1`, the AC40 is 6530 nM.

As for `COc1ccc2c(c1)c1nnc(SC)nc1n2C`, the AC40 was 2000 nM.

As for `Cc1cccc(C(=O)NC(=S)NNC(=O)Cc2ccccc2)c1`, the AC40 was 1220 nM.

On to `Cc1ccccc1OCC(O)Cn1c2ccccc2c2ccccc21` (configuration not stated), for which the AC40 is 3610 nM.

As to `O=C1C(Br)=Cc2cccc3cccc1c23`, the AC40 is 5810 nM.

In the case of `COC1=CC(=O)c2c(ccc3ncnc(N)c23)C1=O`, the AC40 is 10100 nM.

Take `CC(C)=CCc1c(O)cc(O)c2c1OC(c1ccc(O)cc1)CC2=O` (configuration not stated): the AC40 was 12700 nM.

Consider `O=C(N/N=C(\c1ccccc1)c1cccnc1)c1cccc(F)c1`, for which the AC40 is 1120 nM.

For the compound `CCc1cc(C(N)=O)c(NC(=O)c2ccc(OC)cc2)s1`, the AC40 was 6020 nM.

Regarding `O=C1c2ccccc2C2=Nc3ccccc3SC(c3cccc(F)c3)C12` (configuration not stated), the AC40 is 1240 nM.

Consider `Clc1cccc(-c2noc3ncnc(Nc4ccc5c(c4)OCO5)c23)c1`, for which the AC40 is 7060 nM.

For `O=C(Cc1ccccc1F)Nc1nc(-c2ccc(F)c(F)c2)cs1`, the AC40 is 2540 nM.

Turning to `COc1ccc2c(n1)Sc1nc3ccccc3nc1N2`, the AC40 was 649 nM.

As for `CC1Cc2ccccc2N1c1ncnc(N)c1[N+](=O)[O-]` (configuration not stated), the AC40 was 7270 nM.

For `Cn1cnc([N+](=O)[O-])c1S(=O)(=O)Oc1ccc(Cl)cc1`, the AC40 was 1310 nM.

For `COc1ccc([C@H]2[C@H]3C=CC[C@@H](C)[C@@H]3C(=O)N2Cc2ccccc2)cc1Cl`, the AC40 is 4570 nM.

Consider `O=C(CSc1nnc(-c2ccccc2O)n1Cc1ccccc1)NNC(=O)c1ccccc1O`, for which the AC40 is 6840 nM.

With `Cc1cc(C(=O)N/N=C/c2ccc(O)c(O)c2O)c(C)n1-c1ccccc1`, the AC40 is 1360 nM.

Consider `COc1ccc(OC)c2c1C(=O)C(Cl)=C(Cl)C2=O`, for which the AC40 was 660 nM.

As to `CSC(=S)N/N=C/c1ccccc1`, the AC40 was 3190 nM.

As to `CC(=O)c1c(C)oc2c1C(=O)c1ccccc1C2=O`, the AC40 was 1920 nM.

Regarding `CCOC(=O)c1ccc(NC(=O)CC2C(=O)OCCN2CC)cc1` (configuration not stated), the AC40 was 4890 nM.

For `O=C(NC1=CC(=O)c2ccccc2C1=O)c1ccccc1`, the AC40 is 3180 nM.

`O=C(CSc1ccc(-c2ccccn2)nn1)NC1CCCCC1`: the AC40 is 16100 nM.

`O=C(C1=C(Nc2ccccc2)c2ccccc2S(=O)(=O)N1)c1ccccc1`: the AC40 was 2510 nM.

Consider `CCCCCCCCCCOC(=O)Cn1c(COc2ccc(OC)cc2)[n+](C)c2ccccc21`, for which the AC40 is 3330 nM.

For the compound `O=Nc1c(O)n(Cc2ccc(Cl)c(Cl)c2)c2ccccc12`, the AC40 is 8740 nM.

Turning to `COc1cccc2c1C(=O)c1c(O)c3c(c(O)c1C2=O)CC(O)(C(C)=O)CC3OC1CC(N(C)C)C(O)C(C)O1` (configuration not stated), the AC40 is 2850 nM.

In the case of `O=C1c2ccccc2NC(c2ccc(-c3cccc([N+](=O)[O-])c3)o2)N1O` (configuration not stated), the AC40 is 4740 nM.

As for `CN1CCN(C2CCN(c3ccc(Nc4nnc(Cl)c(Nc5ccccc5S(C)(=O)=O)n4)c(OC(CF)CF)c3)CC2)CC1`, the AC40 was 15100 nM.

For the compound `CC/C(=N\Nc1ccc([N+](=O)[O-])cc1)c1ccccc1`, the AC40 is 1620 nM.

On to `CC(C)(C)c1ccc(-n2nc(C#N)c(Cl)cc2=O)cc1`, for which the AC40 is 292 nM.

With `O=C(O)c1cccc(NN=C2c3ccccc3-c3ccccc32)c1`, the AC40 is 3110 nM.

On to `Cc1ccc(-c2nc3ccc(Cl)cc3c(=O)n2O)cc1`, for which the AC40 is 914 nM.

Consider `N#C/C(=C\c1cccnc1)c1ccc(Br)cc1`, for which the AC40 is 15900 nM.

Regarding `O=c1c(O)cccc2cc(O)c(O)c(O)c12`, the AC40 is 2270 nM.

In the case of `Fc1ccc(CCNC(=S)Nc2ccc(F)c(Cl)c2)cc1`, the AC40 is 3700 nM.

Take `COc1cccc(/C=N/NC(=O)c2cc(-c3cccn3C)n[nH]2)c1O`: the AC40 was 5620 nM.

Consider `O=c1cnn([C@@H]2O[C@H](CO)[C@@H](O)[C@H]2O)c(=O)[nH]1`, for which the AC40 is 882 nM.

On to `CCNc1nc(N)nc(-c2cc(Cl)ccc2O)n1`, for which the AC40 was 2170 nM.

`N#C/C(=C\Nc1ccccc1O)c1nc2ccccc2o1`: the AC40 is 1120 nM.

On to `O=C(/C=C/c1ccccc1)c1cc(Br)ccc(=O)c1O`, for which the AC40 was 2080 nM.

As for `COc1cccc(CNC(=O)COc2ccc(C(=O)c3ccccc3)cc2)c1`, the AC40 was 18000 nM.

Turning to `CCN(CC)c1ccc(/C=N/NC(=O)c2cccc(S(=O)(=O)N3CCOCC3)c2)c(O)c1`, the AC40 is 1390 nM.

For the compound `Cc1cc(C)c(C(N)=O)c(Nc2cccc3ccccc23)n1`, the AC40 is > 19500 nM (inactive).
